# Measured values reported in patent publication US20120156150A1, “Composition for Improving Skin Condition Comprising Extract from Black Tea as Active Ingredient” (Keimyung University Industry Academic Cooperation Foundation, priority 2010, published 2012).
# Marks after values point to notes of the source that are not given here.
# Key:
# [1] = Electron donating ability (DPPH radical scavenging, Blois' method)
# Procedure: DPPH radical scavenging effect was measuring according to the Blois' method (1958). […] After adding 1 mL of the test sample in a test tube, 4×10^−4 M DPPH (4 mL) was added. The resulting mixture was shaken vigorously, allowed to stand in warm water of 60° C. for 10 seconds, and absorbance was measured at 525 nm. BHT was used as the positive control group. Then, free radical scavenging activity of each solution was calculated as “% inhibition” according to the following equation: % inhibition=[1−(Asample/Ablank)]×100, wherein Ab1ank is the absorbance of the control group (excluding the test sample) and Asample is the absorbance of the test compound.
# Melan-a cells [2] = test: Melanin analysis in Melan-a cells; assay type: cell-based, mouse; settings: 12.5 μg/mL, compared with the control group
# Procedure: (§1) Melan-a cells were purchased from Dr. Dorothy Bennett (St. George's Hospital, UK). Immortalized Melan-a cells with high pigment content are derived from C57BL/6 mouse. The cells were cultured using Roswell Park Memorial Institute (RPMI)-1640 medium containing 10% fetal bovine serum (FBS), 1% penicillin/streptomycin (P/S) and 200 nM 12-O-tetradecanoylphorbol 13-acetate (TPA) in a 10% CO2 incubator at 37° C. for 72 hours.
# Melan-a cells were seeded on a 96-well plate (2×10^4 cells/well) and cultured in a 10% CO2 incubator at 37° C. for 24 hours. Then, after adding 200 μL of AT, KA, EGCG, GT, WT or BT diluted to various concentrations (1.563, 3.125, 6.25 and 12.5 μg/mL) using RPMI-1640 medium to the wells, the cells were cultured in a 10% CO2 incubator at 37° C. for 72 hours, and then washed. This procedure was repeated several times. After dissolving Melanin with 1N NaOH, absorbance was measured at 490 nm using an ELISA reader. Melanin content (%) was calculated according to the following equation: % melanin content=(Asample/Ablank)×100, wherein Ablank is the absorbance of the control group (excluding the test sample) and Asample is the absorbance of the test compound.
# Melan-a cells [3] = test: MTT assay, viability of Melan-a cells; assay type: cell-based, mouse
# Procedure: as §1
# Melan-a cells were seeded on a 96-well plate (0.5×10^4 cells/well) and cultured in a 10% CO2 incubator at 37° C. for 24 hours. After adding 200 μL of AT, KA, EGCG, GT, WT or BT diluted to various concentrations (3.125, 6.25, 12.5, 25 and 50 μg/mL) using RPMI-1640 medium to the wells, the cells were cultured in a 10% CO2 incubator at 37° C. for 48 hours. Then, the cells were cultured in a medium containing […] in a 10% CO2 incubator at 37° C. for 3 hours. Subsequently, after settling the cells by centrifuging the plate at 1,000 rpm for 10 minutes, the medium was removed. Then, 200 μL of DMSO was added and the cells were suspended for 15 minutes in a plate shaker. Absorbance was measured at 540 nm using an ELISA reader. Cell viability (%) was calculated according to the following equation: % cell viability=(Asample/Ablank)×100, wherein Ablank is the absorbance of the control group (excluding the test sample) and Asample is the absorbance of the test compound.
# gp100 protein = test: Immunohistochemical HMB-45 staining (gp100); assay type: in vivo, brown guinea pig; settings: week 4; 2% sample
# Procedure: (§2) After dehydration, followed by washing with xylene and embedding in paraffin, 4 μm-thick samples were prepared. The sample was adhered on a coating slide and stained using the BenchMark XT automated immunostainer (Ventana Medical Systems, USA) after removing paraffin. […] Following reaction with S-100 and HMB-45 primary antibodies diluted to 1:100, the sample was washed with reaction buffer, reacted with biotin for 20 minutes, and then reacted with streptavidin for 25 minutes. After coloring with diaminobenzidine (DAB) using the Ventana detection kit), the sample was stained for observation using an optical microscope.
# tyrosinase [4] = molecular target: T1, tyrosinase (Mus musculus, UniProt P11344); test: Intracellular tyrosinase activity of Melan-a cells; assay type: biochemical; settings: 12.5 μg/mL, compared with the control group
# T1 construct: endogenous in cells; host or cells: Melan-a cells
# T1 sequence (P11344 19-533): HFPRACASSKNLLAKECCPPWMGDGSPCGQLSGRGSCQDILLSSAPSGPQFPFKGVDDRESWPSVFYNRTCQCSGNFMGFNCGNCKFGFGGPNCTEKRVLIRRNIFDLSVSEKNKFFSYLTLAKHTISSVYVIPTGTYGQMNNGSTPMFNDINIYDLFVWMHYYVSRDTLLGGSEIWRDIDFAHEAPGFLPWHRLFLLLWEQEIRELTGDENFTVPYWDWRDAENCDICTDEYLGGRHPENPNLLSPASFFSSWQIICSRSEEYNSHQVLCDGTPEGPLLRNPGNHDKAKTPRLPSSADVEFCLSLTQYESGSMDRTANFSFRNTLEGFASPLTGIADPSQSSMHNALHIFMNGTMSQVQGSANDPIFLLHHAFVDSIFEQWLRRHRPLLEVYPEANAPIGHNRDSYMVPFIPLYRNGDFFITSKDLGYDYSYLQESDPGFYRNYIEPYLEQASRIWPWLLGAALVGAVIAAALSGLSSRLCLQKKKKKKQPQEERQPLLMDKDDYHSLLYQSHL
# Procedure: (§3) Melan-a cells were seeded on a 60 φ cell culture dish (4×10^5 cells/well) and cultured in a 10% CO2 incubator at 37° C. for 24 hours. After washing with PBS, the cells were suspended by adding 200 μL of 1% triton X-100 to the culture dish, transferred to an e-tube, and fixed on ice. 60 minutes later, after shaking for 2-3 seconds, the cells were centrifuged at 4° C. and 14,000 rpm for 20 minutes to obtain 50 μL of protein, which was mixed with 49 μL of 0.1 M phosphate buffer (pH 6.8) and 1 μL of AT, EGCG, GT, WT or BT (1.563, 3.125, 6.25 or 12.5 μg/mL). After allowing the mixture to stand for 1 hour and adding 100 μL of L-DOPA, the mixture was incubated in a 10% CO2 incubator at 37° C. for 1 hour. Absorbance was measured at 490 nm using an ELISA reader. Tyrosinase activity was calculated according to the following equation: % inhibition=[1−(Asample/Ablank)]×100, wherein Ablank is the absorbance of the control group (excluding the test sample) and Asampie is the absorbance of the test compound.
# S-100 protein = test: Immunohistochemical S-100 staining; assay type: in vivo, brown guinea pig; settings: week 4; 2% sample
# Procedure: as §2
# tyrosinase [5] = molecular target: T1, tyrosinase; test: Cell-extracted tyrosinase activity of Melan-a cells; assay type: biochemical; settings: 12.5 μg/mL, compared with the control group
# Procedure: as §3, with “72” for “24”, “Asample” for “Asampie”
# [6] = tested on: melanin pigmentation in the epithelium; test: Fontana-Masson's silver staining, melanin-pigmented area; assay type: in vivo, brown guinea pig; settings: week 4; 2% sample
# Procedure: In order to observe the morphological change of the skin tissue using an optical microscope, the extracted skin tissue was fixed in a 10% neutral formalin solution for 12 hours and washed with flowing water. After dehydrating in 70, 80, 95 and 100% ethanol followed by washing with xylene, the tissue was embedded in paraffin and 4 μm-thick samples were prepared using a microtome.
# Paraffin was removed from the sample using xylene. After staining the sample for 60 minutes in silver nitrate solution at 56° C. according to the Masson's method (1928), followed by washing, color-toning 0.2% gold chloride solution and washing again, the sample was kept in 5% sodium thiosulfate solution for 5 minutes. Subsequently, after washing the sample once again, followed by counterstaining in nuclear fast red solution, dehydration in 95%, 95%, 100% and 100% alcohol and washing with xylene, the sample was put in Canada balsam for microscopic observation. The percentage of the melanin-pigmented area was calculated using an image analysis software.
# [7] = tested on: UVB-induced hyperpigmentation; test: Melanin index (mexameter), brown guinea pig; assay type: in vivo; settings: 2% sample topical
# Procedure: Three brown guinea pigs weighing 450-550 g were purchased from Oriental Yeast Co. Ltd. (OYC; Japan). The animals were accustomed to the test environment for 7 days. The animals were housed in individual cages under the environment of 22±1° C. and 50±5% relative humidity with 12-hour alternate dark/light cycles. Feed and water were given ad libitum.
# UVB-induced hyperpigmentation was elicited on the back of the brown guinea pig according to the method of Choi et al. (2004). After anesthetizing the guinea pig with ketamine hydrochloride (100 mg/kg BW), 24 separate areas (φ 12 mm) on the skin of the back was exposed to UVB radiation (302-nm sunlamp). The areas were exposed to UVB of 500 mJ/cm^2 for 3 consecutive weeks, once a week. That is, a total of 1,500 mJ/cm^2 of UVB was radiated.
# On day 10 after the final UVB radiation, 30 μL (1.06 mg/cm^2/day) of 2% HQ, EGCG, GT, WT or BT was topically applied for 4 weeks to the hyperpigmented areas (9 areas per each) using a micropipette, twice a day, and 4 days a week. Saline was used as control, and propylene glycol:ethanol:water (5:3:2) was used as vehicle control.
# Before and after the topical application of the test sample, change in melanin pigmentation was measured 3 times in a non-invasive manner using a mexameter, once a week. The degree of pigmentation was analyzed by averaging the measured values.
# tyrosinase [8] = test: Western blotting, expression of tyrosinase protein in Melan-a cells; assay type: cell-based, mouse
# Procedure: Protein concentration in the cell lysate was measured using the Pierce protein assay kit (Pierce Biotechnology, Inc., Rockford, USA), using BSA as standard. After adding same quantity of protein ([…]) on each lane, the proteins were separated by electrophoresis on 10% polyacrylamide gel. After transblotting onto nitrocellulose membrane, the membrane was incubated with PEP7 (1:10000 dilution, anti-tyrosinase antibody), PEP1 (1:10000 dilution, anti-TRP1 antibody) and PEP8 (1:10000 dilution, anti-TRP2 antibody). Then, the membrane was incubated with horseradish peroxidase-conjugated anti-rabbit IgG (1:1000 dilution; Amersham, Bucks, UK). Immunoreactive bands were detected by chemiluminescence using the ECL western blotting detector (Amersham, Bucks, UK). Band intensity was measured using the ImageJ program (NIH, Bethesda, USA). β-actin was used as internal control group for the immunoblotting.
structure (smiles),measurement,setting,value
"O=c1cc(CO)occ1O [KA, kojic acid]",Electron donating ability,[1]; 800 μg/mL,19%
same,melanin content decreased by,Melan-a cells [2],7%
same,maximum permissible level (MPL),"Melan-a cells [3]; mouse, 48 h",exceeds 50 μg/mL
"O=C(O[C@@H]1Cc2c(O)cc(O)cc2O[C@@H]1c1cc(O)c(O)c(O)c1)c1cc(O)c(O)c(O)c1 [EGCG, epigallocatechin gallate]","% of Melanin pigment (Table 5, gp 100 protein)",gp100 protein,5.3 ± 0.8^c %
same,"Melanin pigment (area; Table 5, gp 100 protein)",gp100 protein,600 ± 107 μm^2
same,"area of gp 100 protein expression, decrease by, as compared to the group C",gp100 protein,61%
same,intracellular tyrosinase activity decreased by,tyrosinase [4],61%
same,Electron donating ability,[1]; 800 μg/mL,94%
same,melanin content decreased by,Melan-a cells [2],29%
same,% of S-100 Protein,S-100 protein,5.3 ± 0.7^bc %
same,S-100 Protein area,S-100 protein,611 ± 81 μm^2
same,"area of S-100 protein expression, decrease by, as compared to the control groups",S-100 protein,62%
same,tyrosinase activity in cell extract (decreased) by,tyrosinase [5],18%
same,% of melanin pigment,[6],10.5 ± 2.0^c %
same,Melanin pigment area,[6],1174 ± 189 μm^2
same,"melanin pigmented area decreased by, as compared to the control group",[6],48%
same,melanin index,[7]; week 0,723.5 ± 11.3^a AU
same,melanin index,[7]; week 1,704.1 ± 12.5^a* AU
same,melanin index,[7]; week 2,675.9 ± 12.4^c AU
same,melanin index,[7]; week 3,636.6 ± 12.2^b AU
same,melanin index,[7]; week 4,582.9 ± 12.8^b AU
same,"melanin index decreased by, as compared to the group C",[7]; week 4,17%
same,maximum permissible level (MPL),Melan-a cells [3]; Melan-a cells,12.5 µg/mL
"Cc1cc(C(C)(C)C)c(O)c(C(C)(C)C)c1 [BHT, 2,6-di-tert-butyl-4-methylphenol]",Electron donating ability,[1]; 800 μg/mL,89%
same,Electron donating ability,"[1]; 1,000 μg/mL",55%
"OC[C@H]1O[C@@H](Oc2ccc(O)cc2)[C@H](O)[C@@H](O)[C@@H]1O [AT, arbutin]",intracellular tyrosinase activity decreased by,tyrosinase [4],12%
same,Electron donating ability,[1]; 800 μg/mL,44%
same,melanin content decreased by,Melan-a cells [2],18%
same,tyrosinase activity in cell extract (decreased) by,tyrosinase [5],13%
same,expression of tyrosinase protein,tyrosinase [8],no significant decrease
same,maximum permissible level (MPL),"Melan-a cells [3]; mouse, 48 h",exceeds 50 μg/mL
